PMC6032053, “Design, Synthesis, Cytotoxic Evaluation and Molecular Docking of New Fluoroquinazolinones as Potent Anticancer Agents with Dual EGFR Kinase and Tubulin Polymerization Inhibitory Effects” (International Journal of Molecular Sciences, 2018)
“Also recorded” adds a separate entry of the source.

Legend:
[1] = target: EGFR-TK (Homo sapiens, UniProt P00533); assay: EGFR inhibition assay (HT Scan EGFR kinase assay kit)
Procedure: EGFR kinase activity was measured by HT Scan EGFR kinase assay kits (Cell Signaling Technology, Danvers, MA, USA). The experiments were performed following the manufacturer’s directions. […] Strapavidin-coated 96-well plates were used to take phosphorylated substrate. Anti-phosphotyrosine and europium-labeled secondary antibodies (DELFIA, Perkin-Elmer, Akron, OH, USA) were used to monitor the level of phosphorylation.

[2] = system: MCF-7; assay: In vitro cytotoxic screening (MTT assay), MCF-7; type: cell-based, human; conditions: for IC50: Homo sapiens, MCF7, MTT assay, 24 h, MCF-7 cell line; for IC50 / Selectivity index S2: mean ± SD; for Cell line selectivity: S1 > S2: more selective to MDA-MBA-231, S2 > S1: more selective to MCF-7; for Selectivity index S2: S2 = IC50 (MDA-MBA-231)/IC50 (MCF-7)
Procedure: (§1) Cell lines were obtained from American Type Culture Collection, cells were cultured using DMEM (Invitrogen Life Technologies, Waltham, MA, USA) supplemented with 10% FBS (Hyclone, Logan, UT, USA), 10 µg/mL of insulin (Sigma, St. Louis, MO, USA), and 1% penicillin-streptomycin. […] At the end of the incubation, the cells were harvested and washed with PBS. 20 µL of MTT was added to each well and incubated for 2 h before 200 µL DMSO was added. The absorbance was measured on an ELISA reader (Multiskan EX, Lab systems, Waltham, MA, USA) at wavelength of 570 nm.
(§2) All assays were performed in triplicate. The results were expressed as mean ± SD (standard deviation) using Student’s t test.

[3] = system: MDA-MBA-231; assay: In vitro cytotoxic screening (MTT assay), MDA-MBA-231; type: cell-based, human; conditions: mean ± SD; for IC50: 24 h, MTT assay, MDA-MBA-231 cell line; for Selectivity index S1: S1 = IC50 (MCF-7)/IC50 (MDA-MBA-231)
Procedure: as §1, §2

EGFR-TK, sequence (P00533 25-1210): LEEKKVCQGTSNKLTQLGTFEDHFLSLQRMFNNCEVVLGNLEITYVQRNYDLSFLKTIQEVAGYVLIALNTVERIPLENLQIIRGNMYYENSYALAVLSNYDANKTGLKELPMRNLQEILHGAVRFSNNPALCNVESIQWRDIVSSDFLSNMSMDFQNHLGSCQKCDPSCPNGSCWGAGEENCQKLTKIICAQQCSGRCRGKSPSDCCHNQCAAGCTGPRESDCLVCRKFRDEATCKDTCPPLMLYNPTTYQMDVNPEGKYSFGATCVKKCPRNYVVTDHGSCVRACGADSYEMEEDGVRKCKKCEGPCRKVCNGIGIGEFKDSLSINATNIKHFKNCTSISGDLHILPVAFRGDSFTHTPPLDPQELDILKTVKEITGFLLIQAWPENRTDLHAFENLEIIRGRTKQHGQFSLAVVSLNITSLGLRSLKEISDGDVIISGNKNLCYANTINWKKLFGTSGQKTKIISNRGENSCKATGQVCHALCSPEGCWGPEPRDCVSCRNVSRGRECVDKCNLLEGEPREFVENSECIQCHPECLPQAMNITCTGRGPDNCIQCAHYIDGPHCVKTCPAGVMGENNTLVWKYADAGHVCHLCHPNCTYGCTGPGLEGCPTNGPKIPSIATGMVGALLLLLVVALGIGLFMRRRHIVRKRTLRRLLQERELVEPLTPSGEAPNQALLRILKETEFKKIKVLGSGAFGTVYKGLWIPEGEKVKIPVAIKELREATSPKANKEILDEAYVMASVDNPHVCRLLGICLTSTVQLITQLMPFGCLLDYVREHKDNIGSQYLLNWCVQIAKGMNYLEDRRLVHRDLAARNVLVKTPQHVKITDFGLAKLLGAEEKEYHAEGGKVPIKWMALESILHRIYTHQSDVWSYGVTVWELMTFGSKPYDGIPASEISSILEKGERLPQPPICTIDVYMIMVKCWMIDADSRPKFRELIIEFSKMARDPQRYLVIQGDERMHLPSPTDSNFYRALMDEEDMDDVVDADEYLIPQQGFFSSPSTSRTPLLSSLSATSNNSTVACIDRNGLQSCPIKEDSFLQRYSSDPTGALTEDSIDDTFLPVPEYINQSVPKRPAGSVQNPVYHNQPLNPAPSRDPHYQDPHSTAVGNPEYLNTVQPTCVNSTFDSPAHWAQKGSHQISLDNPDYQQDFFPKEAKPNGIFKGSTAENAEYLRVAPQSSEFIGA

## O=C1Nc2ccccc2/C1=N\n1c(-c2ccc(F)cc2)nc2ccc(F)cc2c1=O [Compound 6, 3-(3-Iminoindolin-2-one)-6-fluoro-2-(4-flurophenyl)quinazoline-4(3H)-one]
[1]
  IC50: 75.2 ± 0.08 nM
other
  melting point: 223 to 225 °C
[2]
  IC50: 350 ± 10 nM
  Cell line selectivity: more selective to MCF-7 than MDA-MBA-231; also recorded: MCF-7 selective
  Selectivity index S2: 3.94 ± 0.26
[3]; Homo sapiens
  IC50: 1380 ± 140 nM
[3]
  Selectivity index S1: 0.25 ± 0.06

## O=c1c2cc(F)ccc2nc(-c2ccc(F)cc2)n1N=Cc1ccco1 [Compound 7, 3-((Furan-2-yl)methyleneamino)-6-fluoro-2-(4-fluorophenyl)quinazolin-4(3H)-one]
other
  melting point: 228 to 230 °C
[2]
  IC50: 1060 ± 30 nM
  Cell line selectivity: more selective to MDA-MBA-231 than MCF-7; also recorded: MDA-MBA-231 selective
  Selectivity index S2: 0.89 ± 0.18
[3]; Homo sapiens
  IC50: 940 ± 70 nM
[3]
  Selectivity index S1: 1.13 ± 0.09

## O=c1c2cc(F)ccc2nc(-c2ccc(F)cc2)n1N=CC=Cc1ccccc1 [Compound 8, 3-(3-Phenylallylideneamino)-6-fluoro-2-(4-fluorophenyl)quinazolin-4(3H)-one]
other
  melting point: 220 to 222 °C
[2]
  IC50: 36600 ± 1810 nM
  Cell line selectivity: more selective to MDA-MBA-231 than MCF-7; also recorded: MDA-MBA-231 selective
  Selectivity index S2: 0.59 ± 0.02
[3]; Homo sapiens
  IC50: 21600 ± 1400 nM
[3]
  Selectivity index S1: 1.69 ± 0.15

## O=c1c2cc(F)ccc2nc(-c2ccc(F)cc2)n1N=Cc1ccccc1 [Compound 10a, 3-(Benzylideneamino)-6-fluoro-2-(4-fluorophenyl)quinazolin-4(3H)-one]
other
  melting point: 218 to 220 °C
[2]
  IC50: 950 ± 10 nM
  Cell line selectivity: more selective to MCF-7 than MDA-MBA-231; also recorded: MCF-7 selective
  Selectivity index S2: 2.61 ± 0.09
[3]; Homo sapiens
  IC50: 2480 ± 170 nM
[3]
  Selectivity index S1: 0.39 ± 0.01

## Cc1ccc(C=Nn2c(-c3ccc(F)cc3)nc3ccc(F)cc3c2=O)cc1 [Compound 10b, 3-(4-Methylbenzylideneamino)-6-fluoro-2-(4-fluorophenyl)quinazoline-4(3H)-one]
other
  melting point: 231 to 233 °C
[2]
  IC50: 5070 ± 330 nM
  Cell line selectivity: more selective to MDA-MBA-231 than MCF-7; also recorded: MDA-MBA-231 selective
  Selectivity index S2: 0.61 ± 0.06
[3]; Homo sapiens
  IC50: 3090 ± 80 nM
[3]
  Selectivity index S1: 1.64 ± 0.21

## COc1ccc(C=Nn2c(-c3ccc(F)cc3)nc3ccc(F)cc3c2=O)cc1 [Compound 10c, 3-(4-Methoxybenzylideneamino)-6-fluoro-2-(4-fluorophenyl)quinazolin-4(3H)-one]
other
  melting point: 228 to 230 °C
[2]
  IC50: 10400 ± 1140 nM
  Cell line selectivity: more selective to MDA-MBA-231 than MCF-7; also recorded: MDA-MBA-231 selective
  Selectivity index S2: 0.10 ± 0.13
[3]; Homo sapiens
  IC50: 1090 ± 10 nM
[3]
  Selectivity index S1: 9.57 ± 0.11

## O=c1c2cc(F)ccc2nc(-c2ccc(F)cc2)n1N=Cc1ccc(F)cc1 [Compound 10d, 3-(4-Fluorobenzylideneamino)-6-fluoro-2-(4-fluorophenyl)quinazolin-4(3H)-one]
other
  melting point: 232 to 234 °C
[2]
  IC50: 890 ± 20 nM
  Cell line selectivity: more selective to MDA-MBA-231 than MCF-7; also recorded: MDA-MBA-231 selective
  Selectivity index S2: 0.43 ± 0.09
[3]; Homo sapiens
  IC50: 382 ± 10 nM
[3]
  IC50: 380 ± 10 nM
  Selectivity index S1: 2.34 ± 0.05

## O=c1c2cc(F)ccc2nc(-c2ccc(F)cc2)n1N=Cc1ccc([N+](=O)[O-])cc1 [Compound 10e, 3-(4-Nitrobenzylideneamino)-6-fluoro-2-(4-fluorophenyl)quinazolin-4(3H)-one]
[1]
  IC50: 170.08 ± 0.02 nM
other
  melting point: 235 to 237 °C
[2]
  IC50: 2610 ± 140 nM
  Cell line selectivity: more selective to MDA-MBA-231 than MCF-7; also recorded: MDA-MBA-231 selective
  Selectivity index S2: 0.11 ± 0.17
[3]
  Selectivity index S1: 9.32 ± 0.08

## O=c1c2cc(F)ccc2nc(-c2ccc(F)cc2)n1N=Cc1ccc(Cl)cc1 [Compound 10f, 3-(4-Chlorobenzylideneamino)-6-fluoro-2-(4-fluorophenyl)quinazolin-4(3H)-one]
other
  melting point: 224 to 226 °C
[2]
  IC50: 710 ± 10 nM
  Cell line selectivity: more selective to MCF-7 than MDA-MBA-231; also recorded: MCF-7 selective
  Selectivity index S2: 5.29 ± 0.31
[3]; Homo sapiens
  IC50: 3760 ± 220 nM
[3]
  Selectivity index S1: 9.57 ± 0.22

## O=c1c2cc(F)ccc2nc(-c2ccc(F)cc2)n1N=Cc1ccc(O)cc1 [Compound 10g, 3-(4-Hydroxybenzylideneamino)-6-fluoro-2-(4-fluorophenyl) quinazolin-4(3H)-one]
other
  melting point: 229 to 231 °C
[2]
  IC50: 1320 ± 80 nM
  Cell line selectivity: more selective to MCF-7 than MDA-MBA-231; also recorded: MCF-7 selective
  Selectivity index S2: 1.92 ± 0.05
[3]; Homo sapiens
  IC50: 2540 ± 230 nM
[3]
  Selectivity index S1: 0.52 ± 0.07
